Entries after “also recorded” stand apart in the source; their conditions may differ. Where two headings read alike, the source gives them in different places. Where a SMILES comes first, the peptide text is derived from it. The star is where a group is joined. Cbz = O=C(OCc1ccccc1)*
Columns and labels:
rat cortical neurons [1] = test: MTT cell viability assay; details: for effect on cis-RSV-mediated neuroprotective effects: combination with cis-RSV, NMDA toxicity; for neurotoxicity (viability): D-amino acid alone; for effect on trans-RSV-mediated neurotoxicity: combination with trans-RSV
Method: (§4) Rat cortical neurons (DIV9-11) were exposed to different treatments (NMDA, ETO, H2O2, MPP+) after seeding 20,000 cells/well in 96-well plates. Cell viability was then assessed at 48 hr after the initial exposure to NMDA. 3-[4,5-dimethylthiazole-2-yl]-2,5-diphenyltetrazolium bromide (MTT) assays were used to assess change in cell viability. […] Cultured rat cortical neurons were incubated with MTT (0.5 mg/mL). In the MTT assay, after 2 hr incubation, the insoluble purple product formazan resulting from the reduction of MTT by NAD (P) H-dependent oxidoreductases present in cells with viable mitochondria was solubilized in dimethyl sulfoxide at room temperature, under agitation, and protected from light. The percentage of MTT reduced as measured by the difference between the absorbances at 570 nm read in a spectrophotometer (SpectraMax® 190R Molecular Devices, UK).

rat cortical neurons [2] = tested on: rat cortical neurons
Method: as §4

cleaved caspase-3 = test: Cleaved caspase-3 immunoblot; type: cell-based, rat; details: compound alone; trans-RSV at high concentration
Method: FIG. 17E presents immunoblots showing the levels of cleaved caspase-3 in rat cortical neurons (DIV 9/10) after the treatment with D-Tyr (2 mM) for 16 hr.

[3] = tested on: histone H3-Ser10-ADP-ribosylation; test: Histone H3 serine-ADP-ribosylation immunoblot in cortical neurons; type: cell-based, rat; details: for histone H3 serine-ADP-ribosylation: compound alone; for histone serine-ADP-ribosylation: picomolar concentration (5-50 pM)
Method: FIG. 5B presents representative immunoblots and quantification of histone H3-Ser10-ADP-ribosylation levels in cortical neurons (DIV9) using anti-H3-Ser10-ADPR antibody after treatment with D-tyrosine (2.5 and 5 mM).
(§1) Cultured neurons (DIV 9-10) were washed once with cold 1×PBS and lysed in cell lysis buffer (20 mM Tris-HCl (pH 7.5), 150 mM NaCl, 1 mM Na2EDTA, 1 mM EGTA, 1% Triton™, 2.5 mM sodium pyrophosphate, 1 mM beta-glycerophosphate, 1 mM Na3VO4, 1 μg/ml leupeptin supplemented with protease inhibitor). The lysates were centrifuged at 10,000 RPM for 15 mins at 4° C. to separate the chromatin-bound and soluble fractions. Lysates were quantified using Bio-Rad™ Protein Assay and equal amounts of protein were loaded onto a 4 to 12% gradient gel (Invitrogen™ NuPAGE™). Protein was transferred from the gel to 0.2 μm NC membranes at 25 V for 10 mins using transfer stacks (iBlot™ 2-Invitrogen™) and blocked with 5% non-fat milk in TBST (10 mM Tris-HCl pH 8.0, 150 mM NaCl, 0.01% Tween-20) for 1 hr before application of primary antibodies. Primary and secondary antibodies were incubated overnight at 4° C. and for 1 hr at room temperature, respectively. Immobilon® ECL Ultra Western HRP Substrate (WBULS0500, Millipore™) and a luminescent image analyzer (ChemiDoc™ Imaging System, Bio-Rad™) were used to detect proteins. Quantification of western blots was done using ImageJ (Version 1.53c).

TyrRS = type: cell-based, rat; details: for levels of neuronal TyrRS: neurotoxic agent alone, after 4 hr of treatment; for neuronal TyrRS levels: picomolar concentration (5-50 pM)
Method: (§2) Primary cortical neurons were dissected from E18 Sprague Dawley rat pups in Hibernate E (BrainBits®) and dissociated using the Neural Tissue Dissociation kit (Miltenyi Biotec). Minced cortices were incubated in a pre-warmed enzyme mix at 37° C. for 15 min; tissues were then triturated and strained using a 40 μm cell strainer. After washing and centrifugation, neurons were seeded in 50 μg/ml poly-D-Lysine (Sigma-Aldrich) coated tissue culture plates. NBActive-1 medium (BrainBits®) supplemented with 100 U/ml of Penicillin-Streptomycin (Life Technologies™), 2 mM L-Glutamine (Life Technologies™), and 1×N21 supplement (R&D Systems™) was used as culture medium. For preparation of culture medium containing reduced tyrosine, the components of NBActive-1 medium were altered to combined with a reduced concentration of tyrosine, as mentioned in Table 1, and was supplemented with 100 U/ml of Penicillin-Streptomycin (Life Technologies™), 2 mM L-Glutamine (Life Technologies™), and 1×N21 supplement (R&D Systems™) to obtained culture medium with reduced tyrosine. Control (non-targeting), TyrRS, and PARP1 siRNAs were obtained from Invitrogen™ (#AM4635, s443, and s130207, respectively). Rat cortical neurons at 5 DIV were transfected with 75 nM control or TyrRS siRNA using DharmaFECT™ 3 Transfection Reagent. A second transfection was done two days later using 75 nM of TyrRS siRNA, followed by cell collection or assays after another 48 hr. For PARP1 siRNA, neurons at 7 DIV were transfected with 75 nM siRNA for both control and PARP1 siRNA.
as §1
Cultured cortical neurons (DIV 9-10) were fixed in 4% formaldehyde for 15 min, followed by permeabilization and blocking for 30 min in 5% BSA (PBS) and 0.1% Tween™ 20 at room temperature. Incubation with primary antibodies was done at 4° C. overnight. The names and dilutions of the primary antibodies used for IF are described in Table 3. Secondary antibodies were incubated for 1 hr at room temperature. Secondary antibodies used were Alexa Fluor® 647 (anti-chicken), Alexa Fluor® 555 (anti-mouse), Alexa Fluor® 488 (anti-rabbit) from Invitrogen™ at 1:1000 dilution. Coverslips were then mounted using DAPI (4′,6-diamidino-2-phenylindole)-supplemented mounting medium, ProLong™ Gold Antifade (Invitrogen™) and imaged with Leica DMI6000 epifluorescent microscope using oil immersion 63×/NA 1.4 objective. The quantification for total protein levels in neurons was done using ImageJ (version 1.53c), and imaging parameters were matched for exposure, gain, and offset.
(§3) The various compounds used for treatments and their stock concentrations in Table 4.

PheRSα/β = PheRSα/β protein levels in cortical neurons (Western blot); type: cell-based, rat; details: for PheRSβ levels: compound alone
Method: as §2, §1, §3

HPF1 = HPF1 levels immunoblot in cortical neurons; type: cell-based, rat; details: compound alone
Method: FIG. 5A presents immunoblots showing the protein levels of HPF1 in rat cortical neurons (DIV9-10) after treatment with Tyr ([…]) for up to 8 hr.
as §1

eEF2 = eEF2 phosphorylation (p-eEF2) Western blot in cortical neurons; type: cell-based, rat; details: compound alone
Method: as §2, §1

monosomes = test: Monosome formation in cortical neurons; type: cell-based, rat
neuronal chromatin = test: Chromatin fraction immunoblots of cortical neurons; type: cell-based, rat; details: picomolar concentration
Method: as §1

[4] = compound alone, rat cortical neurons

CN(C)Cc1ccc(-c2nc3cccc4c3n2CCNC4=O)cc1 [AG-14361]
effect on cis-RSV-mediated neuroprotective effects (rat cortical neurons [1]): did not affect cis-RSV-mediated neuroprotective effects

N[C@H](Cc1ccccc1)C(=O)O [D-Phe]
neurotoxicity (viability) (rat cortical neurons [1]): had no significant effects

N[C@H](Cc1c[nH]c2ccccc12)C(=O)O [D-Trp]
neurotoxicity (viability) (rat cortical neurons [2]): had no significant effects

N[C@H](Cc1ccc(O)cc1)C(=O)O [D-Tyr, D-tyrosine]
levels of cleaved caspase-3 (cleaved caspase-3): increased the levels of cleaved caspase-3 | neurotoxicity (viability) (rat cortical neurons [1]): induced neurotoxicity | histone H3 serine-ADP-ribosylation [3]: potent inhibitor of TyrRS/PARP1/HPF1-dependent serine-ADP-ribosylation and DNA repair

NCCc1ccc(O)c(O)c1 [DA, dopamine]
TyrRS protein levels (TyrRS): increased the protein levels of TyrRS | effect on trans-RSV-mediated neurotoxicity (rat cortical neurons [1]): protected against neurotoxic effects of trans-RSV | histone H3 serine-ADP-ribosylation [3]: stimulated histone H3 serine-ADP-ribosylation

NCCc1cc(O)c(O)cc1O [Formula 6-OHDA, 6-hydroxydopamine]
TyrRS protein levels (TyrRS; [4]): decreased the levels of TyrRS | PheRSβ levels (PheRSα/β): decreased the levels of TyrRS and PheRSβ

O=C(COc1ccc(Cl)cc1)NC1CCC(NC(=O)COc2ccc(Cl)cc2)CC1 (stereo not shown) [ISRIB]
TyrRS protein levels (TyrRS; ISRIB 5-50 nM): increased the protein levels of TyrRS | effect on trans-RSV mediated depletion of TyrRS (TyrRS; combination with trans-RSV): rescued trans-RSV mediated depletion of TyrRS | TyrRS levels (TyrRS; higher doses of ISRIB (250-500 nM)): decreased TyrRS levels | effect on trans-RSV-mediated neurotoxicity (rat cortical neurons [1]): protected against neurotoxic effects of trans-RSV | HPF1 levels (HPF1): increased HPF1 levels | histone H3 serine-ADP-ribosylation [3]: induction of histone H3 serine-ADP-ribosylation | eEF2 phosphorylation (p-eEF2) (eEF2): stimulated the dephosphorylation of eEF2 | PheRSβ protein levels (PheRSα/β; ISRIB 5-50 nM): increased the protein levels of TyrRS and PheRSβ

N[C@@H](Cc1ccc(O)c(O)c1)C(=O)O [L-DOPA, 3,4-dihydroxy-L-phenylalanine]
TyrRS protein levels (TyrRS; [4]): decreased the levels of TyrRS | PheRSβ levels (PheRSα/β): decreased the levels of TyrRS and PheRSβ

CC(C)C[C@@H](C=O)NC(=O)[C@H](CC(C)C)NC(=O)[C@H](CC(C)C)NC(=O)OCc1ccccc1 [MG132] (Cbz-Leu-Leu-Leu-aldehyde)
TyrRS protein levels (TyrRS; [4]): increased the levels of TyrRS

C[n+]1ccc(-c2ccccc2)cc1 [MPP+, 1-methyl-4-phenylpyridinium]
levels of neuronal TyrRS (TyrRS): decreased the levels of neuronal TyrRS

CN[C@H](CC(=O)O)C(=O)O [NMDA, N-Methyl-D-aspartate]
levels of neuronal TyrRS (TyrRS): decreased the levels of neuronal TyrRS

CO/C1=C\C(C)=C\[C@@H](C)[C@@H](O)[C@@H](C)C/C(C)=C/C=C/[C@H](OC)[C@@H]([C@@H](C)[C@@H](O)[C@H](C)[C@@]2(O)C[C@@H](O)[C@H](C)[C@@H](C(C)C)O2)OC1=O [bafilomycin]
TyrRS protein levels (TyrRS; [4]): increased the levels of TyrRS

C[C@@H]1C[C@@H]([C@H](O)CC2CC(=O)NC(=O)C2)C(=O)[C@@H](C)C1 [cycloheximide]
effect on cis-RSV-mediated increase in TyrRS level (TyrRS; combination with cis-RSV): abrogated | TyrRS protein levels (TyrRS; [4]): decreased TyrRS levels

CCn1c(=O)c2cc(C(N)=O)c(N)nc2n(C2CC2)c1=O [eEF2K inhibitor]
effect on trans-RSV-mediated neurotoxicity (rat cortical neurons [1]): protected against neurotoxic effects of trans-RSV

Cc1c(O)cccc1C(=O)N[C@@H](CSc1ccccc1)[C@H](O)CN1C[C@H]2CCCC[C@H]2C[C@H]1C(=O)NC(C)(C)C [nelfinavir]
TyrRS protein levels (TyrRS; [4]): depleted neuronal TyrRS

O=C(c1cc(Cc2n[nH]c(=O)c3ccccc23)ccc1F)N1CCN(C(=O)C2CC2)CC1 [olaparib]
effect on cis-RSV-mediated neuroprotective effects (rat cortical neurons [1]): mitigated the neuroprotective effects of cis-RSV | effect on trans-RSV-mediated neurotoxicity (rat cortical neurons [1]): did not affect trans-RSV-mediated neurotoxicity

N[C@@H](Cc1ccccc1)C(=O)O [phenylalanine, L-phenylalanine]
TyrRS protein levels (TyrRS; [4]): decreased the levels of TyrRS | PheRSβ levels (PheRSα/β): decreased the levels of TyrRS and PheRSβ

Cn1ncnc1[C@H]1c2n[nH]c(=O)c3cc(F)cc(c23)N[C@@H]1c1ccc(F)cc1 [talazoparib]
effect on amyloid beta 42-induced monosome formation (monosomes; combination with amyloid beta 42 (10 picomolar)): lost

amyloid beta 40: amyloid beta 40 peptide at picomolar concentration
neuronal TyrRS levels (TyrRS): stimulation of neuronal TyrRS protein levels | histone serine-ADP-ribosylation [3]: activation of histone serine-ADP-ribosylation

amyloid beta 42: amyloid beta 42 peptide at physiological picomolar concentration
neuronal TyrRS levels (TyrRS): stimulation of neuronal TyrRS protein levels; also recorded: endogenous stimulator | monosome formation (monosomes; picomolar amyloid beta 42 (5-50 pM; 10 picomolar in FIG. 20A)): endogenous stimulator of monosome formation | histone serine-ADP-ribosylation [3]: activation of histone serine-ADP-ribosylation; also recorded: endogenous stimulator | chromatin trapping of auto-PARylated PARP1 with Rad52, DNA polymerase beta, ligase III, TyrRS (neuronal chromatin): trapping of auto-PARylated PARP1 along with Rad52, DNA polymerase beta, ligase III, TyrRS onto the chromatin

B1: BDNF: brain-derived neurotrophic factor (protein, UniProt P23560 19-247, looked up)
Neurotrophic factor BDNF …: APMKEANIRGQGGLAYPGVRTHGTLESVNGPKAGSRGLTSLADTFEHVIEELLDEDQKVRPNEENNKDADLYTSRVMLSSQVPLEPPLLFLLEEYKNYLDAANMSMRVRRHSDPARRGELSVCDSISEWVTAADKKTAVDMSGGTVTVLEKVPVSKGQLKQYFYETKCNPMGYTKEGCRGIDKRHWNSQCRTTQSYVRALTMDSKKRIGWRFIRIDTSCVCTLTIKRGR
TyrRS protein levels (TyrRS; [4]): stimulates the de novo synthesis of neuronal TyrRS | HPF1 levels (HPF1): increased HPF1 levels | histone H3 serine-ADP-ribosylation [3]: induction of histone H3 serine-ADP-ribosylation

Reference: patent US20250241878A1, “TYROSINE AND RESVERATROL DERIVATIVES AS NOVEL MODULATORS OF CELLULAR SERINE ADP-RIBOSYLATION” (UNIVERSITY OF SOUTH CAROLINA, priority 2022, published 2025)
